Assay results taken from EP2698384A1, “Detection of synthetic cannabinoids” (priority 2012, dated 2014).

tested on: Antibody to Immunogen V; format: binding, sheep; conditions: Cross-reactants at 100 ng/ml; 1000ng/ml; single level of cross reactants
Description: (§1) The wells of an enhanced binding 96 well polystyrene microtiter plate were coated with IgG fraction of antiserum raised to Immunogen VI, diluted in 10mM Tris, pH8.5 (125µl/well). The appropriate antibody coating dilution was determined using standard ELISA checkerboard techniques. The plate was incubated overnight at 4°C, washed 4 times over 10 minutes with Tris buffered saline containing Tween 20 (TBST) and tapped dry. Standard solutions of RCS-4 were prepared in TBST at 0, 0.3125, 0.625, 1.25, 2.5, 5, 10 and 20ng/ml, and 50µl of each was added to the appropriate wells (see figure 1). 75µl of conjugate (appropriate hapten-HRP) diluted in Tris buffer (pH 7.2) containing EDTA, D-mannitol, sucrose, thimerosal and BSA, was added to each of the wells. The appropriate dilution of conjugate was also determined using standard ELISA checkerboard techniques. The plate was incubated at 25°C for 1 hour. Excess unbound conjugate was removed by washing 6 times over a 10 minute period with TBST. 125µl oftetramethylbenzidine (TMB) substrate solution was added to each well of the plate that was then incubated for 20 minutes in the dark at room temperature. The reaction was terminated by addition of 125µl 0.2M H2SO4 to each well. The absorbance was then measured at 450nm using a microtiter plate reader. The data are inputted to a computer program called 'KC Junior'. It is a 4 parameter fit curve and allow the calculatation of concentrations between the standard runs. This program is used to calculate the IC50s by dividing the 0ng/ml OD value by 2 and obtaining the concentration value from the curve for this OD.
In a similar manner to that described above, the wells of a 96-well microtiter plate were coated with the IgG fraction of the antiserum raised to Immunogens IV, V, VII or VIII. Standard solutions (RCS-8 for Immunogen V) were prepared in TBST at 0, 1.25, 2.5, 5, 10, 20, 40 and 80ng/ml and conjugate was employed as detection reagent.
(§2) The data set our in Tables 3 and 4 are generated using antibodies raised against the indicated Immunogens in a competitive binding assay with the indicated tracers, using the indicated standards: Table 2
(§3) In order to determine the specificity of the competitive ELISAs, standard solutions of a range of structurally similar synthetic cannabinoids and their metabolites were prepared in TBST. Using the calibration curves generated and employing a single level of cross reactants, these were used to determine the cross-reactivity of each immunoassay with these substances. Table 4: Cross reactivity of the competitive ELISAs for synthetic cannabinoids and their metabolites

How did the “%B/B0” value turn out when CCCCCn1c(O)c(C(=O)c2cccc3ccccc23)c2ccccc21 was run?
The value was 98.82%.

Which “%B/B0” value does the source give for CCCCn1c(O)c(C(=O)c2cccc3ccccc23)c2ccccc21 here?
Its value is 91.80%.

Which “%B/B0” value does the source give for CCCCCn1cc(C(=O)c2cccc3ccccc23)c2c(O)cccc21 here?
Its value is 83.42%.

How did the “%B/B0” value turn out when CCCCn1cc(C(=O)c2cccc3ccccc23)c2c(O)cccc21 was run?
The value was 76.09%.

For CCCCCn1cc(C(=O)c2cccc3ccccc23)c2cc(O)ccc21, which “%B/B0” value is on record?
The value was 88.70%.

For CCCCn1cc(C(=O)c2cccc3ccccc23)c2cc(O)ccc21, which “%B/B0” value is on record?
The value was 82.86%.

For CCCCCn1cc(C(=O)c2cccc3ccccc23)c2ccc(O)cc21, which “%B/B0” value is on record?
The value was 75.65%.

How did the “%B/B0” value turn out when CCCCn1cc(C(=O)c2cccc3ccccc23)c2ccc(O)cc21 was run?
Its value is 68.70%.

For CCCCCn1cc(C(=O)c2cccc3ccccc23)c2cccc(O)c21, which “%B/B0” value is on record?
The value was 80.99%.

With CCCCn1cc(C(=O)c2cccc3ccccc23)c2cccc(O)c21 as the molecule, how does the “%B/B0” value read?
The value was 73.04%.

How did the “%B/B0” value turn out when CCCCCCCC(C)(C)c1ccc(C2CCCC(O)C2)c(O)c1 (stereo not drawn) was run?
The value was 86.41%.

With CCCCCCn1cc(C(=O)c2cccc3ccccc23)c2cc(O)ccc21 as the molecule, how does the “%B/B0” value read?
Its value is 79.13%.

With CCCCn1cc(C(=O)c2ccc(OC)cc2)c2ccccc21 as the molecule, how does the “%B/B0” value read?
Its value is 76.87%.

Which “%B/B0” value does the source give for CC(O)CCCn1cc(C(=O)c2cccc3ccccc23)c2ccccc21 (racemic) here?
The value was 75.59%.

CCCCCCC(C)(C)c1ccc([C@@H]2C[C@H](O)CC[C@H]2CCCO)c(O)c1 (racemic) [((+-)-CP 55,940)] was tested. Which “%B/B0” value did it give?
Its value is 80.97%.

With CCCCCCC(C)(C)c1ccc([C@H]2CCC[C@@H](O)C2)c(O)c1 (racemic) [CP-49,497-C7 ((+-) CP 47,497)] as the molecule, how does the “%B/B0” value read?
The value was 69.53%.

CC(F)CCCn1cc(C(=O)c2cccc3ccccc23)c2ccccc21 (single isomer, unassigned) [AM-2201 N-(4-fluoropentyl) isomer] was tested. Which “%B/B0” value did it give?
The value was 52.90%.

CC(C)C(C)n1cc(C(=O)c2cccc3ccccc23)c2ccccc21 (single isomer, unassigned) [JWH 018 N-(1,2-dimethylpropyl) isomer] was tested. Which “%B/B0” value did it give?
Its value is 74.41%.

Which “%B/B0” value does the source give for CCCC(C)n1cc(C(=O)c2cccc3ccccc23)c2ccccc21 (single isomer, unassigned) [JWH-018 N-(1-methylbutyl) isomer] here?
The value was 76.65%.

How did the “%B/B0” value turn out when CCC(C)Cn1cc(C(=O)c2cccc3ccccc23)c2ccccc21 (single isomer, unassigned) [JWH-018 N-(2-methylbutyl) isomer (JWH-073 2-methylbutyl homologue)] was run?
The value was 69.13%.

How did the “%B/B0” value turn out when O=C(O)Cc1c[nH]c2ccc(O)cc12 [5-hydroxyindole-3-acetic acid (5-HIAA), 5-hydroxyindole-3-acetic acid] was run?
The value was 92.46%.

tested on: Antibody to Immunogen VI; format: binding, sheep; conditions: Cross-reactants at 100 ng/ml; 1000ng/ml; single level of cross reactants
Description: as §1, §2, §3

With CCCCCn1c(O)c(C(=O)c2cccc3ccccc23)c2ccccc21 as the molecule, how does the “%B/B0” value read?
Its value is 101.92%.

CCCCn1c(O)c(C(=O)c2cccc3ccccc23)c2ccccc21 was tested. Which “%B/B0” value did it give?
The value was 89.23%.

CCCCCn1cc(C(=O)c2cccc3ccccc23)c2c(O)cccc21 was tested. Which “%B/B0” value did it give?
Its value is 92.00%.

Which “%B/B0” value does the source give for CCCCn1cc(C(=O)c2cccc3ccccc23)c2c(O)cccc21 here?
The value was 84.39%.

With CCCCCn1cc(C(=O)c2cccc3ccccc23)c2cc(O)ccc21 as the molecule, how does the “%B/B0” value read?
Its value is 95.94%.

For CCCCn1cc(C(=O)c2cccc3ccccc23)c2cc(O)ccc21, which “%B/B0” value is on record?
The value was 85.96%.

Which “%B/B0” value does the source give for CCCCCn1cc(C(=O)c2cccc3ccccc23)c2ccc(O)cc21 here?
Its value is 91.26%.

Which “%B/B0” value does the source give for CCCCn1cc(C(=O)c2cccc3ccccc23)c2ccc(O)cc21 here?
The value was 84.50%.

With CCCCCn1cc(C(=O)c2cccc3ccccc23)c2cccc(O)c21 as the molecule, how does the “%B/B0” value read?
Its value is 91.71%.

CCCCn1cc(C(=O)c2cccc3ccccc23)c2cccc(O)c21 was tested. Which “%B/B0” value did it give?
Its value is 81.62%.

Which “%B/B0” value does the source give for CCCCCCCC(C)(C)c1ccc(C2CCCC(O)C2)c(O)c1 (stereo not drawn) here?
Its value is 100.84%.

With CCCCCCn1cc(C(=O)c2cccc3ccccc23)c2cc(O)ccc21 as the molecule, how does the “%B/B0” value read?
Its value is 89.29%.

How did the “%B/B0” value turn out when CCCCn1cc(C(=O)c2ccc(OC)cc2)c2ccccc21 was run?
The value was 4.40%.

With CC(O)CCCn1cc(C(=O)c2cccc3ccccc23)c2ccccc21 (racemic) as the molecule, how does the “%B/B0” value read?
Its value is 76.16%.

How did the “%B/B0” value turn out when CCCCCCC(C)(C)c1ccc([C@@H]2C[C@H](O)CC[C@H]2CCCO)c(O)c1 (racemic) [((+-)-CP 55,940)] was run?
Its value is 98.86%.

For CCCCCCC(C)(C)c1ccc([C@H]2CCC[C@@H](O)C2)c(O)c1 (racemic) [CP-49,497-C7 ((+-) CP 47,497)], which “%B/B0” value is on record?
Its value is 95.90%.

With CC(F)CCCn1cc(C(=O)c2cccc3ccccc23)c2ccccc21 (single isomer, unassigned) [AM-2201 N-(4-fluoropentyl) isomer] as the molecule, how does the “%B/B0” value read?
Its value is 71.98%.

CC(C)C(C)n1cc(C(=O)c2cccc3ccccc23)c2ccccc21 (single isomer, unassigned) [JWH 018 N-(1,2-dimethylpropyl) isomer] was tested. Which “%B/B0” value did it give?
Its value is 83.71%.

CCCC(C)n1cc(C(=O)c2cccc3ccccc23)c2ccccc21 (single isomer, unassigned) [JWH-018 N-(1-methylbutyl) isomer] was tested. Which “%B/B0” value did it give?
The value was 85.57%.

With CCC(C)Cn1cc(C(=O)c2cccc3ccccc23)c2ccccc21 (single isomer, unassigned) [JWH-018 N-(2-methylbutyl) isomer (JWH-073 2-methylbutyl homologue)] as the molecule, how does the “%B/B0” value read?
The value was 80.10%.

How did the “%B/B0” value turn out when O=C(O)Cc1c[nH]c2ccc(O)cc12 [5-hydroxyindole-3-acetic acid (5-HIAA), 5-hydroxyindole-3-acetic acid] was run?
The value was 95.75%.

tested on: Antibody to Immunogen III; format: binding, sheep; conditions: Cross-reactants at 100 ng/ml; 1000ng/ml; single level of cross reactants
Description: as §1
In a similar manner to that described above, the wells of a 96-well microtiter plate were coated with the IgG fraction of the antiserum raised to Immunogens I, II or III. Standard solutions (JWH-250 for Immunogen III) were applied at 0, 0.625, 1.25, 2.5, 5, 10, 20 and 40ng/ml and conjugate was employed as detection reagent.
as §2, §3

Which “%B/B0” value does the source give for CCCCCn1c(O)c(C(=O)c2cccc3ccccc23)c2ccccc21 here?
Its value is 97.61%.

CCCCn1c(O)c(C(=O)c2cccc3ccccc23)c2ccccc21 was tested. Which “%B/B0” value did it give?
The value was 97.53%.

With CCCCCn1cc(C(=O)c2cccc3ccccc23)c2c(O)cccc21 as the molecule, how does the “%B/B0” value read?
Its value is 82.22%.

For CCCCn1cc(C(=O)c2cccc3ccccc23)c2c(O)cccc21, which “%B/B0” value is on record?
The value was 84.57%.

Which “%B/B0” value does the source give for CCCCCn1cc(C(=O)c2cccc3ccccc23)c2cc(O)ccc21 here?
Its value is 96.24%.

With CCCCn1cc(C(=O)c2cccc3ccccc23)c2cc(O)ccc21 as the molecule, how does the “%B/B0” value read?
Its value is 95.65%.

Which “%B/B0” value does the source give for CCCCCn1cc(C(=O)c2cccc3ccccc23)c2ccc(O)cc21 here?
The value was 92.91%.

With CCCCn1cc(C(=O)c2cccc3ccccc23)c2ccc(O)cc21 as the molecule, how does the “%B/B0” value read?
Its value is 94.60%.

For CCCCCn1cc(C(=O)c2cccc3ccccc23)c2cccc(O)c21, which “%B/B0” value is on record?
The value was 97.89%.

With CCCCn1cc(C(=O)c2cccc3ccccc23)c2cccc(O)c21 as the molecule, how does the “%B/B0” value read?
The value was 95.81%.

How did the “%B/B0” value turn out when CCCCCCCC(C)(C)c1ccc(C2CCCC(O)C2)c(O)c1 (stereo not drawn) was run?
The value was 95.39%.

With CCCCCCn1cc(C(=O)c2cccc3ccccc23)c2cc(O)ccc21 as the molecule, how does the “%B/B0” value read?
Its value is 95.38%.

CCCCn1cc(C(=O)c2ccc(OC)cc2)c2ccccc21 was tested. Which “%B/B0” value did it give?
Its value is 62.80%.

Which “%B/B0” value does the source give for CC(O)CCCn1cc(C(=O)c2cccc3ccccc23)c2ccccc21 (racemic) here?
The value was 86.69%.

How did the “%B/B0” value turn out when CCCCCCC(C)(C)c1ccc([C@@H]2C[C@H](O)CC[C@H]2CCCO)c(O)c1 (racemic) [((+-)-CP 55,940)] was run?
Its value is 93.49%.

How did the “%B/B0” value turn out when CCCCCCC(C)(C)c1ccc([C@H]2CCC[C@@H](O)C2)c(O)c1 (racemic) [CP-49,497-C7 ((+-) CP 47,497)] was run?
Its value is 96.91%.

With CC(F)CCCn1cc(C(=O)c2cccc3ccccc23)c2ccccc21 (single isomer, unassigned) [AM-2201 N-(4-fluoropentyl) isomer] as the molecule, how does the “%B/B0” value read?
The value was 68.00%.

With CC(C)C(C)n1cc(C(=O)c2cccc3ccccc23)c2ccccc21 (single isomer, unassigned) [JWH 018 N-(1,2-dimethylpropyl) isomer] as the molecule, how does the “%B/B0” value read?
The value was 90.17%.

For CCCC(C)n1cc(C(=O)c2cccc3ccccc23)c2ccccc21 (single isomer, unassigned) [JWH-018 N-(1-methylbutyl) isomer], which “%B/B0” value is on record?
Its value is 87.31%.

How did the “%B/B0” value turn out when CCC(C)Cn1cc(C(=O)c2cccc3ccccc23)c2ccccc21 (single isomer, unassigned) [JWH-018 N-(2-methylbutyl) isomer (JWH-073 2-methylbutyl homologue)] was run?
The value was 92.91%.

With O=C(O)Cc1c[nH]c2ccc(O)cc12 [5-hydroxyindole-3-acetic acid (5-HIAA), 5-hydroxyindole-3-acetic acid] as the molecule, how does the “%B/B0” value read?
Its value is 90.54%.
